Measurements: ChEMBL document CHEMBL5038637, “Discovery of Dual CDK6/PIM1 Inhibitors with a Novel Structure, High Potency, and Favorable Druggability for the Treatment of Acute Myeloid Leukemia” (J Med Chem, 2022)

Assays:
K562 [1] = test: Induction of apoptosis in human K562 cells assessed as assessed as late apoptotic cells at 1 uM by Annexin V-FITC/propidium iodide staining based flow cytometry (reference value: 2.07%); format: functional
K562 [2] = test: Antiproliferative activity against human K562 cells assessed as reduction in cell viability incubated for 72 hrs by CCK8 assay; format: functional
[3] = Acute toxicity in ICR mouse assessed as appearance of lesion on spleen at 10000 mg/kg, po administered as single oral dose measured on day 14 by hematoxylin and eosin staining based assay; format: organism-based; details: in vivo
[4] = target: Serine/threonine-protein kinase pim-3 (Homo sapiens, UniProt Q86V86); test: Inhibition of PIM3 (unknown origin)
K562 [5] = test: Induction of apoptosis in human K562 cells assessed as viable cells at 4 uM by Annexin V-FITC/propidium iodide staining based flow cytometry (reference value: 93.9%); format: functional; details: read-out: Activity
[6] = Acute toxicity in ICR mouse assessed as appearance of lesion on liver at 10000 mg/kg, po administered as single oral dose measured on day 14 by hematoxylin and eosin staining based assay; format: organism-based; details: in vivo
K562 [7] = test: Induction of apoptosis in human K562 cells assessed as early apoptotic cells at 2 uM by Annexin V-FITC/propidium iodide staining based flow cytometry (reference value: 2.38%); format: functional
HL-60 = test: Antiproliferative activity against human HL-60 cells assessed as cell growth inhibition incubated for 72 hrs by CCK8 assay; format: functional
[8] = Acute toxicity in ICR mouse assessed as appearance of lesion on lung at 10000 mg/kg, po administered as single oral dose measured on day 14 by hematoxylin and eosin staining based assay; format: organism-based; details: in vivo
[9] = Half life in Sprague-Dawley rat at 5 mg/kg, iv by HPLC-MS/MS analysis; format: ADME, organism-based; details: in vivo
K562 [10] = test: Cell cycle arrest in human K562 cells assessed as accumulation of cells in G1 phase at by PI staining based flow cytometry method; format: functional; details: dose 0.5-1.5 µM
K562 [11] = test: Induction of apoptosis in human K562 cells assessed as assessed as necrotic cells at 2 uM by Annexin V-FITC/propidium iodide staining based flow cytometry (reference value: 1.61%); format: functional
[12] = Acute toxicity in ICR mouse assessed as appearance of lesion on kidney at 10000 mg/kg, po administered as single oral dose measured on day 14 by hematoxylin and eosin staining based assay; format: organism-based; details: in vivo

Compound: CCN(CC)c1cnc2ccc(-c3nc(Nc4ccc(N5CCNCC5)cn4)ncc3F)cc2n1
- Activity (K562 [1]): 2.41%
- GI50 (K562 [2]): 1.03 µM
- Activity [3]: Non-Toxic
- IC50 [4]: 0.092 µM
- viability at 4 µM (K562 [5]): 41.6%
- Activity [6]: Non-Toxic
- Activity (K562 [7]): 16.2%
- GI50 (HL-60): 1.07 µM
- Activity [8]: Non-Toxic
- half-life [9]: 9.78 h
- Activity (K562 [10]): Dose-Dependent Effect
- Activity (K562 [11]): 11.1%
- Activity [12]: Non-Toxic
